Test results reported in ChEMBL document CHEMBL2429766, “Keap calm, and carry on covalently” (J Med Chem, 2013).

Experiments:
[1] = Antiinflammatory activity in mouse macrophages assessed as inhibition of IFN-gamma-induced nitric oxide production after 48 hrs by Griess method; format: functional, cell-based; details: Macrophage
[2] = molecular target: NAD(P)H dehydrogenase [quinone] 1 (Mus musculus) (UniProt Q64669); test: Induction of NQO1 activity in mouse Hepa-1c1c7 cells after 48 hrs by Prochaska method; format: cell-based
[3] = Cytotoxicity against mouse Hepa-1c1c7 cells after 48 hrs; format: cell-based; details: read-out: LD50
[4] = molecular target: NAD(P)H dehydrogenase [quinone] 1 (Mus musculus) (UniProt Q64669); test: Induction of NQO1 activity in mouse hepatoma cells; format: cell-based

NAD(P)H dehydrogenase [quinone] 1 (Mus musculus), sequence (Q64669 whole entry): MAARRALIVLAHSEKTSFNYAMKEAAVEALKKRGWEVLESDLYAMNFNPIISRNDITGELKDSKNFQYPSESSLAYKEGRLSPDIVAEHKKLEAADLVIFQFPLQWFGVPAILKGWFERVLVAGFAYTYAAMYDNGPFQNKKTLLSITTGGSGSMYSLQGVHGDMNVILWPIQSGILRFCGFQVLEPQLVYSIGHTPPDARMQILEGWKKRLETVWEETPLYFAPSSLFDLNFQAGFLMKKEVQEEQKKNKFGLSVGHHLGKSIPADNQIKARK

Compound CC1(C)CC[C@]2(C(=O)O)CC[C@]3(C)C(=CC[C@H]4C3(C)CC[C@H]3C(C)(C)C(=O)C(O)=C[C@@]34C)[C@@H]2C1 (single isomer, unassigned) has an IC50 [1] of 37 µM.
In the case of CC[S+]([O-])C(=O)N(CCCC[S+](C)[O-])c1ccccc1 (stereo not given), the CD [2] is reported as 43 µM and the CC50 at 48 h [3] is reported as over 200 µM.
In the case of CC[S+]([O-])C(=O)N(CCCC[S+](C)[O-])C1CC1 (stereo not given), the CD [2] is reported as 43 µM and the CC50 at 48 h [3] is reported as over 200 µM.
CC1(C)CC[C@]2(C(=O)O)CC[C@]3(C)[C@H](C(=O)C=C4[C@@]5(C)C=CC(=O)C(C)(C)[C@@H]5CC[C@]43C)[C@@H]2C1 gave an IC50 [1] of 0.17 µM.
With O=C(O)CCCCN=C=S the CD [4] was 2.2 µM.
In the case of O[C@@H]1CC2CC1C[C@@H]2N=C=S (stereo not given in full), the CD [4] is reported as 19 µM.
For CC(=O)[C@H]1CC2CC1C[C@@H]2N=C=S (stereo not given in full), the CD [4] was 0.4 µM.
CC1(C)CC[C@]2(C(=O)O)CC[C@]3(C)C(=CC[C@@H]4[C@@]5(C)CC[C@H](O)C(C)(C)[C@@H]5CC[C@]43C)[C@@H]2C1 [OLEANOLIC_ACID] showed an IC50 [1] of over 40 µM.
For CS(=O)(=O)[C@H]1CC2CC1C[C@@H]2N=C=S (stereo not given in full), the CD [4] was 0.7 µM.
CS(=O)(=O)[C@@H]1CCC[C@@H](CN=C=S)C1 (relative stereo) showed a CD [4] of 0.5 µM.
Compound CC1(C)CC[C@]2(C(=O)O)CC[C@]3(C)[C@H](C(=O)C=C4[C@@]5(C)C=C(C#N)C(=O)C(C)(C)[C@@H]5CC[C@]43C)[C@@H]2C1 [BARDOXOLONE] has an IC50 [1] of 0.0004 µM.
With CS(=O)(=O)[C@H]1CC2CC1[C@H](N=C=S)C2 (relative stereo) the CD [4] was 0.2 µM.
With CS(=O)(=O)[C@@H]1CC2CC1[C@H](N=C=S)C2 (relative stereo) the CD [4] was 1 µM.
In the case of CC[S+]([O-])C(=O)N(CCCC[S+](C)[O-])Cc1cccc2ccccc12 (stereo not given), the CD [2] is reported as 5.3 µM and the CC50 at 48 h [3] is reported as over 50 µM.
CC[S+]([O-])C(=O)N(CCCC[S+](C)[O-])Cc1ccc(F)cc1F (stereo not given) showed a CD [2] of 7.3 µM and a CC50 at 48 h [3] of over 50 µM.
For COC(=O)CCCCN=C=S, the CD [4] was 2.8 µM.
In the case of CS(=O)(=O)[C@H]1CC[C@@H](N=C=S)CC1, the CD [4] is reported as 0.4 µM.
Compound CC[S+]([O-])C(=O)N(CCCC[S+](C)[O-])Cc1ccc(C(C)(C)C)cc1 (stereo not given) has a CD [2] of 3.8 µM and a CC50 at 48 h [3] of 32 µM.
COC(=O)[C@H]1CC2CC1C[C@@H]2N=C=S (stereo not given in full) gave a CD [4] of 0.7 µM.
CCCCC(=O)CCCCN=C=S gave a CD [4] of 2 µM.
CC[S+]([O-])C(=O)N(CCCC[S+](C)[O-])C1CCCCC1 (stereo not given) gave a CD [2] of 64 µM and a CC50 at 48 h [3] of over 200 µM.
In the case of CS(=O)(=O)[C@@H]1CCC[C@H](CN=C=S)C1 (relative stereo), the CD [4] is reported as 0.4 µM.
COC(=O)[C@H]1CC2CC1[C@H](N=C=S)C2 (stereo not given in full) gave a CD [4] of 1.6 µM.
Compound N#C[C@H]1CC2CC1C[C@@H]2N=C=S (stereo not given in full) has a CD [4] of 0.6 µM.
Work on CC[S+]([O-])C(=O)N(CCCC[S+](C)[O-])Cc1ccc(-c2ccccc2)cc1 (stereo not given) yielded a CD [2] of 2.8 µM and a CC50 at 48 h [3] of 16 µM.
With CCCCCCN=C=S the CD [4] was 15 µM.
Compound N#CCCCCN=C=S has a CD [4] of 2 µM.
With C[S@+]([O-])CCCCN=C=S the CD [4] was 0.2 µM.
With CC[S+]([O-])C(=O)N(CCCC[S+](C)[O-])Cc1ccccc1 (stereo not given) the CD [2] was 13 µM and the CC50 at 48 h [3] was over 200 µM.
CC1(C)CC[C@]2(C(=O)O)CC[C@]3(C)C(=CC[C@@H]4[C@@]5(C)C=CC(=O)C(C)(C)[C@@H]5CC[C@]43C)[C@@H]2C1 showed an IC50 [1] of 7.1 µM.
CSC(=O)CCCCN=C=S gave a CD [4] of 2.8 µM.
CC(=O)[C@@H]1CC2CC1[C@H](N=C=S)C2 (relative stereo) showed a CD [4] of 0.8 µM.
CC(=O)[C@H]1CC2CC1[C@H](N=C=S)C2 (relative stereo) gave a CD [4] of 0.3 µM.
With CC(=O)CCCCN=C=S the CD [4] was 0.2 µM.
Work on CC1(C)CC[C@]2(C(=O)O)CC[C@]3(C)C(=CC(=O)[C@@H]4[C@@]5(C)C=CC(=O)C(C)(C)[C@@H]5CC[C@]43C)[C@@H]2C1 yielded an IC50 [1] of 1.4 µM.
For CC[S+]([O-])C(=O)N(C)CCCC[S+](C)[O-] (stereo not given), the CD [2] was 94 µM and the CC50 at 48 h [3] was over 200 µM.
For CP(C)(=O)CCCCN=C=S, the CD [4] was 0.4 µM.
Work on O=[N+]([O-])[C@H]1CC2CC1C[C@@H]2N=C=S (stereo not given in full) yielded a CD [4] of 1.1 µM.
Work on CC(O)[C@H]1CC2CC1C[C@@H]2N=C=S (stereo not given in full) yielded a CD [4] of 0.5 µM.
With CCCN(CCCC[S+](C)[O-])C(=O)[S+]([O-])CC (stereo not given) the CD [2] was 35 µM and the CC50 at 48 h [3] was over 200 µM.
